Results: US10638757B2, “Formulation systems for antimicrobial glycolipids” (IMD Natural Solutions GmbH, priority 2016, dated 2020)
“Also recorded” adds a separate entry of the source.

How the values were obtained:
[1] = Screening of additives as formulation stabilizers in combination with a mixture of antimicrobial glycolipids in water based formulations (turbidity, qualitative overview)
Procedure: As to identify formulation stabilizer a screening was conducted in which additives typically used in food, cosmetic or medical applications were combined with a mixture of antimicrobial glycolipids in a water based formulation. A rather high concentration of 1000 mg/l for the formulation enhancing agents was used as to not miss potential effects whereas the mixture of antimicrobial glycolipids was applied in typical use concentrations, i.e. 5, 10 and 25 μg/ml.
Portions of about 50 mL each for two beverages. “Gerolsteiner Orangenlimonade” (turbid orange lemonade, de-gassed; cloudy beverage) and “REWE Apfelsaft” (clear apple juice, sterile filtered; clear beverage) as well as for 10 mM citrate buffer is water (pH 3.0), were mixed each with aliquots of a mixture of antimicrobial glycolipids and the respective additives as to establish for each individually screened additive three combinations of concentrations (1000 μg/ml (with few exceptions as listed below) additive with 5, 10 and 25 μg/ml mixture of antimicrobial glycolipids, respectively); three controls with neither adding a mixture of antimicrobial glycolipids nor additive were run in parallel.
The necessary aliquots of a mixture of antimicrobial glycolipids were transferred from an aqueous stock solution containing 1 mg/ml mixture of antimicrobial glycolipids into the nine test solutions prepared for each additive.
The necessary aliquots of additives were transferred directly into the 50 mL portions.
For measurement of the turbidity the turbidity infrared device AL250T-IR from […]® was used. It was measured at three time points: day 0, 3, 7. All test samples were stored and handled at room temperature.

[2] = Visual control of compatibility (turbidity, particles, precipitate) of beverages containing mixture of antimicrobial glycolipids with or without formulation stabilizer
Procedure: All experiments done and reported in duplicate.
Portions of about 50 mL each for the two beverages, “Gerolstetner Orangenlimonade” (turbid orange lemonade, de-gassed; cloudy beverage) and “REWE Apfelsaft” (clear apple juice, sterile filtered; clear beverage), were mixed with aliquots of a mixture of antimicrobial glycolipids and alpha-cyclodextrin as to establish the depicted nine combinations of concentrations (4-2 to 4-4 and 4-6 to 4-11, respectively); two control solutions with neither adding a mixture of antimicrobial glycolipids nor alpha-cyclodextrin were run in parallel (4-1 and 4-5, respectively).
However, for the concentration of 10 μg/ml of mixture of antimicrobial glycolipids three combination with alpha-cyclodextrin, 25 (6-1, 6-2, 6-9, 6-10, 6-17, 6-18), 75 (6-3, 6-4, 6-11, 6-12, 6-19, 6-20) and 100 μg/ml (6-5, 6-6, 6-13, 6-14, 6-21, 6-22) and for the concentration of 25 μg/ml of mixture of antimicrobial glycolipids only 100 μg/ml alpha-cyclodextrin (6-7, 6-8, 6-15, 6-16, 6-23, 6-24) was used all with two test points, respectively.
2×50 mL portion of the four solutions in the Erlenmeyer flasks were poured into clear and sterile polystyrol conical tubes and sealed for investigation of stability and compatibility of such beverages at three different temperatures (6/20/40° C.) each, resulting in four tubes per temperature and beverage. Such 24 tubes were stored for seven days and observed at day 0, 3 and 7 by measurement of turbidity as well as by optical inspection. A control solution without adding any components was run in parallel.
Portions of about 50 mL each for the three beverages, “Gerolsteiner Orangenlimonade” (orange lemonade, de-gassed, cloudy beverage), “Kastell Zitronensprudel” (citrus lemonade, sterile filtered, clear beverage), and “REWE Apfelsaft” (clear apple juice, sterile filtered, clear beverage), were mixed with aliquots of a mixture of antimicrobial glycolipids as to establish the nine test solutions; three control solutions without adding a mixture of antimicrobial glycolipids were ran in parallel: […]

[3] = Influence of the additives on the MIC of a mixture of antimicrobial glycolipids (qualitative); type: cell-based; details: additive 1 mg/ml
Source text: In addition, the influence of the additives on the MIC of a mixture of antimicrobial glycolipids is described qualitatively.

[4] = Comparison of alpha-cyclodextrin with Polysorbate 60: practicability in application in beverages and reliability in use; details: compared with polysorbates
Source text: The preferred formulation stabilizers polysorbates and cyclodextrins have been further investigated towards their practicability in application in beverages as well as their reliability in use.

[5] = additive 1 mg/ml, independent of glycolipid mixture

Compound: Sorbitan monostearate
- Effect of additive itself on water based product ([1]; additive 0.1 mg/ml): Weakly soluble

Compound: polyoxyethylene-(20)-sorbitane monolaurate [Polysorbate 20]
- Effect of additive itself on water based product [1, 5]: Not compatible with apple juice.

Compound: polyoxyethylene-(20)-sorbitane monooleate [Polysorbate 80]
- Effect of additive itself on water based product [1, 5]: Increase of turbidity; also recorded: Not compatible with apple juice

Compound: polyoxyethylene-(20)-sorbitane monostearate [Polysorbate 60]
- Effect of additive itself on water based product [1, 5]: Not compatible with apple juice.

Compound: OC[C@H]1O[C@@H]2O[C@H]3[C@H](O)[C@@H](O)[C@@H](O[C@H]4[C@H](O)[C@@H](O)[C@@H](O[C@H]5[C@H](O)[C@@H](O)[C@@H](O[C@H]6[C@H](O)[C@@H](O)[C@@H](O[C@H]7[C@H](O)[C@@H](O)[C@@H](O[C@H]8[C@H](O)[C@@H](O)[C@@H](O[C@H]9[C@H](O)[C@@H](O)[C@@H](O[C@H]1[C@H](O)[C@H]2O)O[C@@H]9CO)O[C@@H]8CO)O[C@@H]7CO)O[C@@H]6CO)O[C@@H]5CO)O[C@@H]4CO)O[C@@H]3CO [gamma cyclodextrin]
- beneficial effects as formulation stabilizer for antimicrobial glycolipids [2]: less pronounced beneficial effects

Compound: O=C(O)CN(CCN(CC(=O)O)CC(=O)O)CC(=O)O [EDTA]
- Effect on MIC [3]: Impr.

Compound: OC[C@H]1O[C@@H]2O[C@H]3[C@H](O)[C@@H](O)[C@@H](O[C@H]4[C@H](O)[C@@H](O)[C@@H](O[C@H]5[C@H](O)[C@@H](O)[C@@H](O[C@H]6[C@H](O)[C@@H](O)[C@@H](O[C@H]7[C@H](O)[C@@H](O)[C@@H](O[C@H]1[C@H](O)[C@H]2O)O[C@@H]7CO)O[C@@H]6CO)O[C@@H]5CO)O[C@@H]4CO)O[C@@H]3CO [alpha-cyclodextrin]
- alpha-cyclodextrin concentration avoiding lack of compatibility ([2]; 10 μg/ml mixture of antimicrobial glycolipids in apple juice at 4° C.): 75 µg/mL
- alpha-cyclodextrin concentration needed to avoid lack of compatibility ([2]; 10 μg/ml mixture of antimicrobial glycolipids in apple juice at 40° C.): 100 µg/mL
- duration of improvement of compatibility ([2]; alpha-cyclodextrin with 10 μg/ml mixture of antimicrobial glycolipids, apple juice): > 28 days
- overall rating as broadly applicable and reliable formulation stabilizer [4]: superior
